According to ChEMBL document CHEMBL2074392, “Three-dimensional quantitative structure-activity relationships of inhibitors of P-glycoprotein” (Mol Pharmacol, 2002):

Legend:
Format in all cases: functional, cell-based
[1] = target: T1, ATP-dependent translocase ABCB1 (Homo sapiens, UniProt P08183); test: TP_TRANSPORTER: increase in Vinblastine intracellular accumulation in MDR1-expressing LLC-PK1 cells
[2] = target: T1, ATP-dependent translocase ABCB1; test: TP_TRANSPORTER: increase in Calcein-AM intracellular accumulation in MDR1-expressing LLC-PK1 cells
[3] = target: T1, ATP-dependent translocase ABCB1; test: TP_TRANSPORTER: inhibition of Digoxin transepithelial transport (basal to apical) (Digoxin: 5 uM) in Caco-2 cells

T1 sequence (P08183 whole entry): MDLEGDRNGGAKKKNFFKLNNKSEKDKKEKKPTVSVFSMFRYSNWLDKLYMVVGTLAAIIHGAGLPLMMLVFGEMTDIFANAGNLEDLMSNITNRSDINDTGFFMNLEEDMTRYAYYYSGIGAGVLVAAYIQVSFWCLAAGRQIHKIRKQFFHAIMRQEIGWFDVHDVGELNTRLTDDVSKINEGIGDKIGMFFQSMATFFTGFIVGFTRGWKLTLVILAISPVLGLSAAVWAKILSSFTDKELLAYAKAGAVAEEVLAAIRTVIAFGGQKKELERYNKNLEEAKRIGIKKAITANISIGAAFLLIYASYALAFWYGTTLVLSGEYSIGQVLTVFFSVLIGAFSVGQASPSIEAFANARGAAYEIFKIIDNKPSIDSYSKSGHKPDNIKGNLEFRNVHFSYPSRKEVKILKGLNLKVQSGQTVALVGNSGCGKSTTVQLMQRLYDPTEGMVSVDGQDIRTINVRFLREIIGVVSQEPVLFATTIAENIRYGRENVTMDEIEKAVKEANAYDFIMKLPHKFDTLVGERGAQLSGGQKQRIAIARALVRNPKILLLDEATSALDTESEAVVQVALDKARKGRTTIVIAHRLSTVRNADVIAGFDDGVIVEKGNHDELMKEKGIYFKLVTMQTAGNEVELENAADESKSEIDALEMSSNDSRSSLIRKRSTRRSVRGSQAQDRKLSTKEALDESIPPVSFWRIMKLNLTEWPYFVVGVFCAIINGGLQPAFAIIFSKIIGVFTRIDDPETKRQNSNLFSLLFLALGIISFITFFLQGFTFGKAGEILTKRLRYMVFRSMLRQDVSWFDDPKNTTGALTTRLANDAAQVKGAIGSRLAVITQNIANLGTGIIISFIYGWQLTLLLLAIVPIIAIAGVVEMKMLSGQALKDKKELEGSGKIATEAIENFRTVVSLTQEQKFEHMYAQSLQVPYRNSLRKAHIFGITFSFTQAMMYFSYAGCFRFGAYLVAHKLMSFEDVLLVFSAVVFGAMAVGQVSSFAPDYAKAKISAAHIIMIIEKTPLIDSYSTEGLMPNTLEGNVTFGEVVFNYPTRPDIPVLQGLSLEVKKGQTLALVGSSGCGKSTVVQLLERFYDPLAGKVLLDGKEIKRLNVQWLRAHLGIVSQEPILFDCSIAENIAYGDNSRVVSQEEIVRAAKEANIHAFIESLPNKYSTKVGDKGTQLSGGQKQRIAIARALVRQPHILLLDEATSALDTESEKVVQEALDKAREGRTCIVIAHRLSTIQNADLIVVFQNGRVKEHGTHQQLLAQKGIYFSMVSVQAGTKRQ

CN1C[C@H](C(=O)N[C@]2(C)O[C@@]3(O)[C@@H]4CCCN4C(=O)[C@H](Cc4ccccc4)N3C2=O)C[C@@H]2c3cccc4[nH]cc(c34)C[C@H]21 [DIHYDROERGOTAMINE]
Ki [1]: 120 µM
Ki [2]: > 1000 µM

COc1ccc(CCCN2CCC(Cc3ccccc3)CC2)cc1OC
IC50 [3]: 2.3 µM

CC(C)[C@H]1C(=O)N2CCC[C@H]2[C@]2(O)O[C@](NC(=O)[C@@H]3C=C4c5cccc6[nH]cc(c56)C[C@H]4N(C)C3)(C(C)C)C(=O)N12 [ERGOCORNINE]
Ki [1]: 24.5 µM
Ki [2]: 105 µM

CC(C)C[C@H]1C(=O)N2CCC[C@H]2[C@]2(O)O[C@](NC(=O)[C@@H]3C=C4c5cccc6[nH]cc(c56)C[C@H]4N(C)C3)(C(C)C)C(=O)N12 [ERGOCRYPTINE]
Ki [1]: 6.43 µM
Ki [2]: 12.2 µM

C[C@@H](CO)NC(=O)[C@@H]1C=C2c3cccc4[nH]cc(c34)C[C@H]2N(C)C1 [ERGONOVINE]
Ki [1]: > 100 µM
Ki [2]: 115 µM

CC(C)[C@@]1(NC(=O)[C@@H]2C=C3c4cccc5[nH]cc(c45)C[C@H]3N(C)C2)O[C@@]2(O)[C@@H]3CCCN3C(=O)[C@H](Cc3ccccc3)N2C1=O [ERGOCRISTINE]
Ki [1]: 13.3 µM
Ki [2]: 42.8 µM

CN1C[C@H](C(=O)N[C@]2(C)O[C@@]3(O)[C@@H]4CCCN4C(=O)[C@H](Cc4ccccc4)N3C2=O)C=C2c3cccc4[nH]cc(c34)C[C@H]21 [ERGOTAMINE]
Ki [1]: 14.2 µM
Ki [2]: 98.9 µM

CC(C)C[C@H]1C(=O)N2CCC[C@H]2[C@]2(O)O[C@](NC(=O)[C@@H]3C[C@@H]4c5cccc6[nH]cc(c56)C[C@H]4N(C)C3)(C(C)C)C(=O)N12 [DIHYDROERGOCRYPTINE]
Ki [1]: 19.8 µM
Ki [2]: 360 µM

CC(C)[C@@]1(NC(=O)[C@@H]2C[C@@H]3c4cccc5[nH]cc(c45)C[C@H]3N(C)C2)O[C@@]2(O)[C@@H]3CCCN3C(=O)[C@H](Cc3ccccc3)N2C1=O [DIHYDROERGOCRISTINE]
Ki [1]: 16 µM
Ki [2]: 511 µM

OC(Cn1cncn1)(Cn1cncn1)c1ccc(F)cc1F [FLUCONAZOLE]
Ki [1]: > 400 µM
Ki [2]: > 1000 µM

COC(=O)[C@H]1[C@H]2C[C@@H]3c4[nH]c5cc(OC)ccc5c4CCN3C[C@H]2C[C@@H](OC(=O)c2cc(OC)c(OC)c(OC)c2)[C@@H]1OC [RESERPINE]
Ki [1]: 0.97 µM
Ki [2]: 12.2 µM

CC(C)C[C@H]1C(=O)N2CCC[C@H]2[C@]2(O)O[C@](NC(=O)[C@@H]3C=C4c5cccc6[nH]c(Br)c(c56)C[C@H]4N(C)C3)(C(C)C)C(=O)N12 [BROMOCRIPTINE]
Ki [1]: 3.96 µM
Ki [2]: 2.81 µM
